We go through eleven molecules from ChEMBL document CHEMBL1201862, “PubChem BioAssay data set” (2004).

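In this assay, cells in 96-well plates receive the compound at five concentrations for 48 hours. Endpoints are linearly interpolated between the surrounding concentrations. Here, GI50 denotes the concentration required for 50% inhibition of growth.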 Active and inactive are the calls of the source. No stated cut-off is given here; in the data, active = GI50 up to about 1.1 µM and inactive = higher. Where only a bound is given, the exact number is not on record here.

Assay in all cases: NCI anticancer screen, dose series, 48 h
Assay [1] concerns HCC 2998.
Assay [2] has as its system NCI-H460.
Assay [3] concerns EKVX.
Assay [4] has as its system T47D.
Assay [5] relates to HCT-15.
For assay [6], the system named is M14.
In assay [7] the test system is A549.
For assay [8], the system named is NCI-H23.
Assay [9] relates to CAKI-1.
The test system of assay [10] is Malme-3M.
For assay [11], the system named is UACC-62.
The test system of assay [12] is SW-620.
For assay [13], the system named is HOP-92.
The test system of assay [14] is MOLT-4.
In assay [15] the test system is SK-MEL-2.
The test system of assay [16] is SR.
For assay [17], the system named is SNB-19.
Assay [18] concerns SK-OV-3.
Assay [19] relates to SNB-75.

For the molecule `CCCC(c1cc(C(C)(C)C)c(O)cc1C)c1cc(C(C)(C)C)c(O)cc1C`, the GI50 is 1.75 µM (inactive) in assay [1]; 1.95 µM (inactive) in assay [2]; 2.88 µM (inactive) in assay [3]; 2.56 µM (inactive) in assay [4]; 3.35 µM in assay [5]; 2.09 µM (inactive) in assay [6]. Further, the GI50 was 2.99 µM (inactive) in [7]; 2.65 µM (inactive) in assay [8]; 4.3 µM (inactive) in assay [9]; 3.05 µM (inactive) in assay [10]; 2.09 µM (inactive) in assay [11]; 3.23 µM (inactive) in [12]. The GI50 in [13] is 8.41 µM (inactive); in assay [14], 2.16 µM (inactive); in [15], 2.6 µM (inactive); in assay [16], 2.26 µM (inactive); in [17], 4.99 µM (inactive); in [18] it was 3.65 µM (inactive).

For `O=C(O)/C=C\C(=O)Nc1ccccn1`, the GI50 was > 100 µM (inactive) in assay [2]; > 100 µM (inactive) in assay [3]; > 100 µM (inactive) in [19]; > 100 µM (inactive) in assay [4]; over 100 µM in assay [5]; > 100 µM (inactive) in assay [6]. Moreover, the GI50 in assay [7], in assay [8], in [9], in assay [10], in [11] and in assay [12] was > 100 µM (inactive) each time. In addition, the GI50 in assay [13], in assay [14], in assay [15], in assay [16], in assay [17] and in assay [18] was > 100 µM (inactive) throughout.

As for `O=[N+]([O-])C(/C=C(\Cl)n1nnc2ccccc21)=C(/Cl)n1nnc2ccccc21`, the GI50 in assay [1] was > 100 µM (inactive); in [2], > 100 µM (inactive); in [3], > 100 µM (inactive); in assay [4], > 100 µM (inactive); in [5], over 100 µM; in assay [6], > 100 µM (inactive). The GI50 in assay [7], in [8], in assay [9], in [10], in [11] and in [13] was > 100 µM (inactive) throughout. For the same molecule, the GI50 in assay [14], in assay [15], in assay [16], in [17] and in [18] was > 100 µM (inactive) each time.

Regarding `CC(=O)O[C@@H]1C(=O)N(c2ccccc2)[C@@H]1c1cc2ccccc2c2ccccc12`, the GI50 is 25.7 µM (inactive) in assay [1]; 31.4 µM (inactive) in [2]; 40.6 µM (inactive) in [3]; 18.7 µM (inactive) in assay [4]; 33.1 µM in [5]; 55.3 µM (inactive) in assay [6]. The GI50 in [7] is 21.5 µM (inactive); in [8] it was 20.2 µM (inactive); in assay [9] it was 5.25 µM (inactive); in [10], 22.9 µM (inactive); in [11] it was 22.8 µM (inactive); in assay [13], 20.8 µM (inactive). Further, the GI50 was 12.3 µM (inactive) in assay [14]; 14.4 µM (inactive) in [15]; 15.5 µM (inactive) in assay [16]; 73.3 µM (inactive) in assay [17]; 47.8 µM (inactive) in assay [18].

For the molecule `Cc1ccc(C2(N3CCOCC3)OC(C)(C)c3cccc4cccc2c34)cc1` (centres undefined), the GI50 in assay [2] is 14.5 µM (inactive); in assay [3], 13 µM (inactive); in [19], 15.4 µM (inactive); in [4] it was 21.7 µM (inactive); in [5] it was 17 µM; in assay [6], 16.8 µM (inactive). Also, the GI50 was 12.9 µM (inactive) in assay [7]; 17.7 µM (inactive) in [8]; 18.2 µM (inactive) in [9]; 16.8 µM (inactive) in assay [10]; 13.6 µM (inactive) in assay [11]; 18.2 µM (inactive) in [12]. Besides, the GI50 in assay [13] was 11.9 µM (inactive); in assay [14], 41.5 µM (inactive); in [15], 15.6 µM (inactive); in assay [16] it was 35.1 µM (inactive); in assay [17] it was 17.6 µM (inactive); in assay [18] it was 16.7 µM (inactive).

In the case of `O=c1[nH]c2ccc(Cl)cc2o1`, the GI50 is > 100 µM (inactive) in [2]; 26.7 µM (inactive) in [3]; > 100 µM (inactive) in [19]; > 100 µM (inactive) in [4]; over 100 µM in assay [5]; > 100 µM (inactive) in [6]. Also, the GI50 in [7], in [8], in [9], in [10], in assay [11] and in [12] was > 100 µM (inactive) throughout. Further, the GI50 is 17.5 µM (inactive) in assay [13]; > 100 µM (inactive) in [14]; > 100 µM (inactive) in [16]; > 100 µM (inactive) in assay [17]; > 100 µM (inactive) in assay [18].

In the case of `OC(c1cc2ccccc2[nH]1)C1(c2cccnc2)SCCCS1` (centres undefined), the GI50 was 94.6 µM (inactive) in [2]; 21.2 µM (inactive) in assay [3]; 73.6 µM (inactive) in [19]; 69.7 µM (inactive) in assay [4]; 84.7 µM in assay [5]; 51.2 µM (inactive) in assay [6]. The GI50 was 47.6 µM (inactive) in [7]; 35.6 µM (inactive) in [8]; > 100 µM (inactive) in assay [9]; 87.3 µM (inactive) in assay [10]; 50.9 µM (inactive) in assay [11]; 90.6 µM (inactive) in assay [12]. In addition, the GI50 in assay [13] was > 100 µM (inactive); in assay [14], 27.9 µM (inactive); in assay [15] it was 19.1 µM (inactive); in [16] it was 41.8 µM (inactive); in assay [17] it was > 100 µM (inactive); in assay [18], > 100 µM (inactive).

On to `C#C[C@]1(O)CC[C@H]2[C@@H]3CCC4=C/C(=N/OC(=O)c5cccc6cc7ccccc7nc56)CC[C@@H]4[C@H]3CC[C@@]21CC`, for which the GI50 in assay [1] was > 100 µM (inactive); in assay [2], > 100 µM (inactive); in [19] it was > 100 µM (inactive); in assay [4], 33.8 µM (inactive); in assay [5], over 100 µM; in [6], > 100 µM (inactive). Besides, the GI50 in assay [7], in assay [8], in assay [9], in assay [11], in assay [12] and in assay [13] was > 100 µM (inactive) in each case. Besides, the GI50 in assay [14] was > 100 µM (inactive); in assay [15] it was > 100 µM (inactive); in assay [16], 44.4 µM (inactive); in assay [17], > 100 µM (inactive); in [18] it was > 100 µM (inactive).

In the case of `COc1cc(-c2oc(/C=N/c3ccccc3)c([N+](=O)[O-])c2-c2ccc(O)c(OC)c2)ccc1O`, the GI50 was 15 µM (inactive) in assay [1]; 16.1 µM (inactive) in [2]; 25.8 µM (inactive) in assay [3]; 11.5 µM (inactive) in assay [19]; 38.9 µM (inactive) in assay [4]; 14.4 µM in assay [5]. The GI50 in assay [6] is 32.1 µM (inactive); in assay [7], 39.2 µM (inactive); in assay [8] it was 16.3 µM (inactive); in assay [9], 21.8 µM (inactive); in [11], 17.9 µM (inactive); in assay [12] it was 22.9 µM (inactive). Further, the GI50 in assay [13] is 13.8 µM (inactive); in assay [14], 12.2 µM (inactive); in [15], 32.9 µM (inactive); in assay [16] it was 2.86 µM (inactive); in assay [17], 22.4 µM (inactive); in assay [18], > 41.8 µM (inactive).

For `CC(O)C1(CNc2cc(Cl)nc(N)n2)CC(CCc2ccccc2)C1` (centres undefined), the GI50 in [2] is 14 µM (inactive); in [3], 10.2 µM (inactive); in assay [19] it was 15.5 µM (inactive); in [4], 3.42 µM (inactive); in assay [5], 11.6 µM; in assay [6], 17.9 µM (inactive). In addition, the GI50 in assay [7] was 10.6 µM (inactive); in [8], 3.06 µM (inactive); in assay [9], 11 µM (inactive); in assay [10], 13.3 µM (inactive); in assay [11], 11.9 µM (inactive); in assay [12], 15.8 µM (inactive). The GI50 in assay [13] was 12.2 µM (inactive); in assay [14], 11.6 µM (inactive); in assay [15], 17.2 µM (inactive); in assay [16], 6.15 µM (inactive); in assay [17], 15.8 µM (inactive); in assay [18], 15.1 µM (inactive).

On to `CC(Br)C(=O)Nc1ccc(C(=O)O)c(O)c1` (centres undefined), for which the GI50 in [2] is > 100 µM (inactive); in assay [3] it was > 100 µM (inactive); in assay [19] it was 43.5 µM (inactive); in assay [4], > 100 µM (inactive); in assay [5], over 100 µM; in assay [6], 33.4 µM (inactive). Also, the GI50 is > 100 µM (inactive) in [7]; 27.4 µM (inactive) in [8]; > 100 µM (inactive) in [9]; 20.7 µM (inactive) in assay [10]; 33.6 µM (inactive) in [11]; 60.8 µM (inactive) in assay [12]. Besides, the GI50 in assay [13] was 65.6 µM (inactive); in [14] it was 36.1 µM (inactive); in [15] it was 32.4 µM (inactive); in [16] it was 32.9 µM (inactive); in assay [17] it was 37.2 µM (inactive); in assay [18], 38.5 µM (inactive).
